pIC50: −log10 of the molar value.
The compounds below were run against T1, C-X-C chemokine receptor type 3 (Homo sapiens, UniProt P49682) (assay: Inhibitory concentration against […] expressed in human HEK293 cells using [125I]CXCL10 as radioligand).
T1 sequence (P49682 whole entry): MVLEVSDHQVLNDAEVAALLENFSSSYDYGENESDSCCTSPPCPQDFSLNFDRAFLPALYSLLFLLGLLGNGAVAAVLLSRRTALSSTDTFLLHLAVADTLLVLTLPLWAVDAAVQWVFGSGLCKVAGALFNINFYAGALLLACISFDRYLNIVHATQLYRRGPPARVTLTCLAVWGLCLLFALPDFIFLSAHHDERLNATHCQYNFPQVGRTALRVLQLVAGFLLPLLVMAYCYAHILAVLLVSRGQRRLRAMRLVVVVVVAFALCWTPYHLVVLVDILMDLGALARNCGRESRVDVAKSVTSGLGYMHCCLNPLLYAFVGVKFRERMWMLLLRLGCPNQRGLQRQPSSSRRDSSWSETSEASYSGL
Type: cell-based
In the case of `CCCCCCCCCC(=O)N(CCN(C)C)C(C)c1nc2ccccc2c(=O)n1-c1ccc(C)cc1` (centres undefined), the pIC50 was 5.51.
Work on `CCCCCCCCCC(=O)N(CCN(C)C)C(C)c1nc2ccccc2c(=O)n1-c1ccc(F)cc1` (centres undefined) yielded a pIC50 of 5.49.
Compound `CCCCCCCCCC(=O)N(CCN(C)C)C(C)c1nc2ccccc2c(=O)n1-c1ccccc1` (centres undefined) has a pIC50 of 4.82.
Compound `CCCCCCCCCC(=O)N(CCN(C)C)C(C)c1nc2ccccc2c(=O)n1-c1ccc(C#N)cc1` (centres undefined) has a pIC50 of 6.03.
With `CCCCCCCCCC(=O)N(CCN(C)C)C(C)c1nc2ccccc2c(=O)n1-c1cccc(C#N)c1` (centres undefined) the pIC50 was 5.24.
Compound `CCCCCCCCCC(=O)N(CCN(C)C)C(C)c1nc2ccccc2c(=O)n1-c1ccccc1C#N` (centres undefined) has a pIC50 of 5.00.
With `CCCCCCCCCC(=O)N(CCN(C)C)C(C)c1nc2ccccc2c(=O)n1-c1ccc(O)cc1` (centres undefined) the pIC50 was < 4.00.
For `CCCCCCCCCC(=O)N(CCN(C)C)C(C)c1nc2ccccc2c(=O)n1-c1ccc(C(F)(F)F)cc1` (centres undefined), the pIC50 was < 4.00.
Compound `CCCCCCCCCC(=O)N(CCN(C)C)C(C)c1nc2ccccc2c(=O)n1-c1ccc(OC)cc1` (centres undefined) has a pIC50 of 5.48.

— ChEMBL document CHEMBL1139603, “Synthesis and structure-activity relationship of 3-phenyl-3H-quinazolin-4-one derivatives as CXCR3 chemokine receptor antagonists” (Bioorg Med Chem Lett, 2005)
